{"source": "the Kinase Knowledgebase extract (Sharma et al. 2016)", "key": {"MAPK14": {"biological_target": "MAPK14 (UniProt Q16539)", "sequence (Q16539 whole entry, looked up)": "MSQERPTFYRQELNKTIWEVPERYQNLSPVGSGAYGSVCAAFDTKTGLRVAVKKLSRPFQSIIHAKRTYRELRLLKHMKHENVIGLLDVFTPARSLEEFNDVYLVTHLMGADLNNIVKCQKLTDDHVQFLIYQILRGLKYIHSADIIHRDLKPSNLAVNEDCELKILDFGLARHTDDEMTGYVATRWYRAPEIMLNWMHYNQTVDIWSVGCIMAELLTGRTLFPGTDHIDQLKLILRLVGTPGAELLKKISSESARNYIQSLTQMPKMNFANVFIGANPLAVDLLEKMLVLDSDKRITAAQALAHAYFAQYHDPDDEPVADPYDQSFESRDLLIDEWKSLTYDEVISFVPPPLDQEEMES", "test": "In vitro Inhibition of MAPK14 Kinase Activity"}, "MAPK14 (BALB/cJ mice)": {"test_system": "MAPK14 (BALB/cJ mice)", "test": "In vivo Inhibition of LPS-induced TNF-alpha Production", "conditions": "dose or concentration not given here"}, "MAPK14 (human)": {"biological_target": "MAPK14 (human) (UniProt Q16539)", "sequence (Q16539 whole entry, looked up)": "as above", "test": "In vitro Inhibition of TNF-alpha Production in PBMC Cells"}}}
{"smiles": "COC(=O)c1c(-c2ccc(F)cc2)c(-c2ccncc2)c(N2CCCC2)n1C", "values": [{"measurement": "IC50", "setting": "MAPK14", "value": 10000, "unit": "nM"}, {"measurement": "inhibition", "setting": "MAPK14 (BALB/cJ mice)", "value": -38, "unit": "%"}, {"measurement": "IC50", "setting": "MAPK14 (human)", "value": 17, "unit": "nM"}]}
{"smiles": "COC(=O)c1c(-c2ccc(F)cc2)c(-c2ccncc2)c(N2CCNCC2)n1C", "values": [{"measurement": "IC50", "setting": "MAPK14", "value": 10000, "unit": "nM"}, {"measurement": "inhibition", "setting": "MAPK14 (BALB/cJ mice)", "value": 73, "unit": "%"}, {"measurement": "IC50", "setting": "MAPK14 (human)", "value": 33, "unit": "nM"}]}
{"smiles": "COC(=O)c1c(-c2ccc(F)cc2)c(-c2ccncc2)c(N2CCOCC2)n1C", "values": [{"measurement": "IC50", "setting": "MAPK14", "value": 10000, "unit": "nM"}, {"measurement": "inhibition", "setting": "MAPK14 (BALB/cJ mice)", "value": -41, "unit": "%"}, {"measurement": "IC50", "setting": "MAPK14 (human)", "value": 47, "unit": "nM"}]}
{"smiles": "CC(=O)c1c(-c2ccc(F)cc2)c(-c2ccncc2)c(N2CCNCC2)n1C", "values": [{"measurement": "IC50", "setting": "MAPK14", "value": 10000, "unit": "nM"}, {"measurement": "inhibition", "setting": "MAPK14 (BALB/cJ mice)", "value": 39, "unit": "%"}, {"measurement": "IC50", "setting": "MAPK14 (human)", "value": 40, "unit": "nM"}]}
{"smiles": "CCOC(=O)c1c(-c2cc(F)cc(F)c2)c(-c2ccncc2)c(Br)n1C", "values": [{"measurement": "IC50", "setting": "MAPK14", "value": "> 10000", "unit": "nM"}, {"measurement": "inhibition", "setting": "MAPK14 (BALB/cJ mice)", "value": -36, "unit": "%"}, {"measurement": "IC50", "setting": "MAPK14 (human)", "value": 2720, "unit": "nM"}]}
{"smiles": "Fc1ccc(-c2c[nH]c(CN3CCc4ccccc4C3)c2-c2ccncc2)cc1", "values": [{"measurement": "IC50", "setting": "MAPK14", "value": 2000, "unit": "nM"}, {"measurement": "inhibition", "setting": "MAPK14 (BALB/cJ mice)", "value": 63, "unit": "%"}, {"measurement": "IC50", "setting": "MAPK14 (human)", "value": 40, "unit": "nM"}]}
{"smiles": "CC(=O)N1CCN(c2c(-c3ccncc3)c(-c3ccc(F)cc3)c(C#N)n2C)CC1", "values": [{"measurement": "IC50", "setting": "MAPK14", "value": 2000, "unit": "nM"}, {"measurement": "inhibition", "setting": "MAPK14 (BALB/cJ mice)", "value": 81, "unit": "%"}, {"measurement": "IC50", "setting": "MAPK14 (human)", "value": 154, "unit": "nM"}]}
{"smiles": "COC(=O)c1c(-c2ccc(F)cc2)c(-c2ccncc2)c(N)n1C", "values": [{"measurement": "IC50", "setting": "MAPK14", "value": 10000, "unit": "nM"}, {"measurement": "inhibition", "setting": "MAPK14 (BALB/cJ mice)", "value": 53.9, "unit": "%"}, {"measurement": "IC50", "setting": "MAPK14 (human)", "value": 51, "unit": "nM"}]}
{"smiles": "COC(=O)c1c(-c2ccc(F)cc2)c(-c2ccncc2)c(N2CCN(C)CC2)n1C", "values": [{"measurement": "IC50", "setting": "MAPK14", "value": 2000, "unit": "nM"}, {"measurement": "inhibition", "setting": "MAPK14 (BALB/cJ mice)", "value": 89, "unit": "%"}, {"measurement": "IC50", "setting": "MAPK14 (human)", "value": 95, "unit": "nM"}]}
{"smiles": "CCCNC(=O)c1c(-c2ccc(F)cc2)c(-c2ccncc2)c(N2CCNCC2)n1C", "values": [{"measurement": "IC50", "setting": "MAPK14", "value": 10000, "unit": "nM"}, {"measurement": "IC50", "setting": "MAPK14 (human)", "value": 10000, "unit": "nM"}]}
{"smiles": "COC(=O)C(=O)c1c(-c2ccc(F)cc2)c(-c2ccncc2)c(N2CCNCC2)n1C", "values": [{"measurement": "IC50", "setting": "MAPK14", "value": 10000, "unit": "nM"}, {"measurement": "inhibition", "setting": "MAPK14 (BALB/cJ mice)", "value": 52, "unit": "%"}, {"measurement": "IC50", "setting": "MAPK14 (human)", "value": 28, "unit": "nM"}]}
{"smiles": "CCCc1c(-c2ccnc(N[C@@H](C)c3ccccc3)n2)c(-c2ccc(F)cc2)cn1CCN1CCOCC1", "values": [{"measurement": "IC50", "setting": "MAPK14", "value": 10000, "unit": "nM"}, {"measurement": "inhibition", "setting": "MAPK14 (BALB/cJ mice)", "value": -35, "unit": "%"}, {"measurement": "IC50", "setting": "MAPK14 (human)", "value": 4, "unit": "nM"}]}
{"smiles": "CC(=O)c1c(-c2ccc(F)cc2)c(-c2ccncc2)c(N2CCN(C(C)=O)CC2)n1C", "values": [{"measurement": "IC50", "setting": "MAPK14", "value": 2000, "unit": "nM"}, {"measurement": "IC50", "setting": "MAPK14 (human)", "value": 43, "unit": "nM"}]}
{"smiles": "CN1CCN(c2c(-c3ccncc3)c(-c3ccc(F)cc3)c(C#N)n2C)CC1", "values": [{"measurement": "IC50", "setting": "MAPK14", "value": 2000, "unit": "nM"}, {"measurement": "inhibition", "setting": "MAPK14 (BALB/cJ mice)", "value": 47, "unit": "%"}, {"measurement": "IC50", "setting": "MAPK14 (human)", "value": 80, "unit": "nM"}]}
{"smiles": "Cn1c(N2CCCC2)c(-c2ccncc2)c(-c2ccc(F)cc2)c1C(C)(C)O", "values": [{"measurement": "IC50", "setting": "MAPK14", "value": 2000, "unit": "nM"}, {"measurement": "inhibition", "setting": "MAPK14 (BALB/cJ mice)", "value": 37.7, "unit": "%"}, {"measurement": "IC50", "setting": "MAPK14 (human)", "value": 192, "unit": "nM"}]}
{"smiles": "COC(=O)c1c(-c2ccc(F)cc2)c(-c2ccncc2)c(Nc2ccc(N(C)C)cc2)n1C", "values": [{"measurement": "IC50", "setting": "MAPK14", "value": "> 10000", "unit": "nM"}, {"measurement": "inhibition", "setting": "MAPK14 (BALB/cJ mice)", "value": 15, "unit": "%"}, {"measurement": "IC50", "setting": "MAPK14 (human)", "value": 118, "unit": "nM"}]}
{"smiles": "Cn1c(C(=O)C2CC2)c(-c2ccc(F)cc2)c(-c2ccncc2)c1N1CCN(C(=O)C2CC2)CC1", "values": [{"measurement": "IC50", "setting": "MAPK14", "value": 10000, "unit": "nM"}, {"measurement": "IC50", "setting": "MAPK14 (human)", "value": 36, "unit": "nM"}]}
{"smiles": "Cn1c(C(=O)OC(C)(C)C)c(-c2ccc(F)cc2)c(-c2ccncc2)c1N1CCNCC1", "values": [{"measurement": "inhibition", "setting": "MAPK14 (BALB/cJ mice)", "value": 25, "unit": "%"}, {"measurement": "IC50", "setting": "MAPK14 (human)", "value": 420, "unit": "nM"}]}
{"smiles": "COC(=O)CN1CCN(c2c(-c3ccncc3)c(-c3ccc(F)cc3)c(C(=O)OC)n2C)CC1", "values": [{"measurement": "inhibition", "setting": "MAPK14 (BALB/cJ mice)", "value": 26, "unit": "%"}, {"measurement": "IC50", "setting": "MAPK14 (human)", "value": 5, "unit": "nM"}]}
{"smiles": "CCOC(=O)c1c(-c2cc(F)cc(F)c2)c(-c2ccncc2)c(N2CCNCC2)n1C", "values": [{"measurement": "inhibition", "setting": "MAPK14 (BALB/cJ mice)", "value": 75, "unit": "%"}, {"measurement": "IC50", "setting": "MAPK14 (human)", "value": 93, "unit": "nM"}]}
